# Source: patent US11779602B2, “Methods of use for CAR T cells” (ENDOCYTE, INC., priority 2018, dated 2023)
# Experiments:
# [1] = test system: HOS-FRα tumor; assay: CRS toxicity and sodium fluorescein rescue in HOS-FRα tumor-bearing mice; assay type: in vivo
# Protocol: All animal care and use were performed according to NIH guidelines and in compliance with protocols approved by the Purdue University Animal Use and Care Committee. Female 4 to 5-week-old NOD/SCID gamma (NSG™) mice (stock number: 005557) were purchased from The Jackson Laboratory (Bar Harbor, Me.). Unless specifically indicated, all animals were maintained on a FA-deficient diet (TestDiet, St. Louis, Mo.) upon arrival and throughout the study. To establish subcutaneous xenografts, MDA-MB-231 and HOS-FRα were implanted in the right flank region at 2.5×10^6 and 1×10^6 cells per animal, respectively. For intravenous xenografts, THP1-FRβ cells were inoculated at 5×10^6 cells per animal. Subcutaneous tumors were measured 2-3 times per week with a caliper and calculated using the ellipsoidal formula (length×width^2)/2. […] All animal doses (CAR-T cells, EC17, sodium fluorescein) were given intravenously.
# Depending on the CAR-T cell dose and how EC17 is administered, tumor-bearing mice receiving FITC-specific CAR-T cells can experience severe CRS and varying degrees of body weight loss. Therefore, a CRS grading system (0-5 scale) was developed to empirically assess CRS toxicity from animals' gross morphology and social behavior to allow for better timing of CRS rescue. While grades 0 and 5 indicated normal (no CRS) or death (due to severe CRS), respectively, grades 1, 2, and 3-4 were considered mild, light-to-moderate, and severe CRS (FIG. 57A). In addition, all EC17 doses were intentionally given towards the end of any given day to allow potential CRS symptoms to develop overnight. On the days immediately following each EC17 dose, animals were scored and rescue agents such as sodium fluorescein, folic acid and leucovorin were used to mitigate CRS toxicity. In this particular instance, a batch of E2 CAR-T cells with a high EGFRt+CD4/CD8 ratio (˜93:7) was given to HOS-FRα tumor-bearing mice at a mixture of ˜2.5 million CD8 and ˜33 million CD4 on day 0 (FIG. 57B). […]
# [2] = test system: FR+ tumor cell targets (MDA-MB-231, THP1-FRβ, HOS-FRα); assay: CAR-T cell activation markers (CD69, CD137, PD1) in co-culture with EC17-preloaded targets; assay type: cell-based, human; details: E/T 1:1, 24 hours
# Protocol: To study CAR-T cell activation in the presence of FR+ tumor cell targets (FIGS. 53A-D), co-culture experiments were initially carried out with MDA-MB-231, THP1-FRβ and HOS-FRα. […] After 24 hours of co-culture, the surface expression of T cell activation markers CD69, CD137 (4-1BB), and PD1 were analyzed by flow cytometry. For T cell exhaustion studies (FIGS. 54A-C), FR+ (KB, MDA-MB-231, HOS-FRα^fLuc, THP1-FRβ) and FR-negative (HOS-143b^fLuc, THP1-FG12) tumor cell lines were used as targets. Here, target cells were incubated on day 0 without or with 0.1 and 10 nM of EC17 for 30 min at 37° C. and the status of EC17 “pre-loading” was assessed by counterstaining cell-surface EC17 with an anti-FITC antibody (FIG. 61A). Three days later, the surface expression of PD1, LAG3, and TIM3 inhibitor receptors on co-cultured CAR-T cells were analyzed and higher frequencies of double- and triple-positive cells were considered approaching an exhausted phenotype.
# To examine antigen-dependent CAR-T cell activation, MDA-MB-231, THP1-FRβ and HOS-FRα cells were preloaded with 100 nM EC17 over 30 min. […] After 24 hours of co-culture, we measured the surface expression of T cell activation markers CD69, CD137 (4-1BB) and PD1 (FIGS. 53A-D). […] Three days later, co-cultured CAR-T cells were measured for upregulation and co-expression of T cell activation/exhaustion markers PD1, LAGS and TIM3. […]
compound,measurement,setting,value
"NC1=NC2N=CC(CNc3ccc(C(=O)N[C@@H](CCC(=O)NCCNC(=S)Nc4ccc(-c5c6ccc(=O)cc-6oc6cc(O)ccc56)c(C(=O)O)c4)C(=O)O)cc3)=NC2C(=O)N1 (stereo partly shown) [EC17, FA-(γ)-ethylenediamine-FITC]",CRS grade (0-5 scale),"[1]; day 13, after EC17 500 nmol/kg on day 12",3 grade
same,CRS grade (0-5 scale),"[1]; days 4 and 11, after EC17 500 and 100 nmol/kg on days 3 and 10, ~35 million CAR-T cells",1-2 grade
same,"CAR-T cell activation (CD69, CD137, PD1)",[2]; MDA-MB-231 and HOS-FRα preloaded with 100 nM EC17 30 min,strong activators
same,"CAR-T cell activation (CD69, CD137, PD1)",[2]; THP1-FRβ preloaded with 100 nM EC17 30 min,"did trigger CAR-T cell activation, but at lower levels"
